The test system of experiment [1] is New Zealand White rabbits. To be noted: conscious rabbits, intravenous, positive control, before the blood pressure reversed back. The procedure:
Four adult New Zealand White rabbits of both sexes are chosen for these studies. The experiments are conducted in accordance with the Australian code of Practice for the Care and use of Animals for Scientific Purposes and approval is sought from the Animal Experimental Committee of Alfred Hospital, Baker IDI, Melbourne, Australia. The conscious rabbits are implanted with an intravenous catheter in marginal ear vein or by centrally by […] catheter interfaced to a pressure transducer connected to a suitable recorder. To unveil peripheral effects of test compound, two sets of acute studies are conducted in rabbits. In the first set of studies, test compound is dosed to rabbit intravenously for a dose-response study with cumulative doses starting 0 (Ringer's Lock solution as a vehicle), 0.1, 0.3, 1, 3.2 and 10 mg/kg where each dose is tested on a separate day. A single intravenous bolus dose at 3 mg/kg is given and a time-course study is conducted in the second set of studies. Systolic, […], mean and […] blood pressures are recorded in both the studies.

In experiment [2] the target is T1, human recombinant serotonin (5-Hydroxytryptamine) 5-HT7 receptor (Homo sapiens, UniProt P34969).
T1 construct: expressed in transfected cells; host or cells: CHO
The experiment in a line: Serotonin 5-HT7 radioligand binding ([3H]LSD). As to conditions: 0.1 μM compound; read-out: Percentage inhibition of ligand binding, Serotonin 5-HT7. The procedure: To evaluate in radioligand binding assays the activity of compounds of the invention, human recombinant serotonin (5-Hydroxytryptamine) 5-HT7 receptor expressed in Chinese hamster ovary (CHO) cells (Roth, B. et al, J. Pharmacol. Exp. Ther. 268:1403, 1994; Shen, Y. et al, J. Biol. Chem. 268:18200, 1993) in a modified Tris-HCl buffer (50 mM Tris-HCl, pH 7.4, 10 mM MgCl2, 0.5 mM EDTA) was used. Compounds of invention were incubated with 5.5 nM [^3H] Lysergic acid diethylamide (LSD) for 2 h at 25° C. Non-specific binding was estimated in the presence of 10 μM Serotonin (5-HT). Receptor proteins were filtered and washed, the filters were then counted to determine [^3H]LSD specifically bound. Compounds were screened at 1 μM or lower, using 1% DMSO as vehicle. Biochemical assay results are presented as the percent inhibition of specific binding in Table 5.

Experiment [3] has as its target T2, human recombinant histamine H1 receptor (Homo sapiens, UniProt P35367).
T2 construct: expressed in transfected cells; host or cells: CHO-K1
The experiment in a line: Histamine H1 radioligand binding ([3H]Pyrilamine). As to conditions: 1 μM compound; read-out: Binding data (Percentage inhibition) Histamine H1 (1 μM). The procedure:
To evaluate in radioligand binding assays the activity of compounds of the invention, human recombinant histamine H1 receptor expressed in Chinese hamster ovary (CHO) K1 cells (De Backer, M. et al, Biochem. Biophys. Res. Comm. 197(3):1601, 1993) in a modified Tris-HCl buffer (50 mM Tris-HCl, pH 7.4, 2 mM MgCl2, 100 mM NaCl, 250 mM Sucrose) was used. Compounds of the invention were incubated with 1.2 nM [^3H]Pyrilamine for 180 min at 25° C. Non-specific binding was estimated in the presence of 1 μM Pyrilamine. Receptor proteins were filtered and washed, the filters were then counted to determine [^3H]Pyrilamine specifically bound. Compounds were screened at 1 μM or lower, using 1% DMSO as vehicle. Biochemical assay results are presented as the percent inhibition of specific binding in Table 3.

In experiment [4] the target is T3, human recombinant serotonin (5-Hydroxytryptamine) 5-HT6 receptor (Homo sapiens, UniProt P50406).
T3 construct: expressed in transfected cells; host or cells: HeLa
The experiment in a line: Serotonin 5-HT6 radioligand binding ([3H]LSD). As to conditions: 0.1 μM compound; read-out: Percentage inhibition of ligand binding, Serotonin 5-HT6. As to the method:
To evaluate in radioligand binding assays the activity of compounds of the invention, human recombinant serotonin (5-Hydroxytryptamine) 5-HT6 receptor expressed in human HeLa cells (Monsma, F. Jr. et al, Mol. Pharmacol. 43:320, 1993) in a modified Tris-HCl buffer (50 mM Tris-HCl, pH 7.4, 150 mM NaCl, 2 mM Ascorbic Acid, 0.001% BSA) was used. Compounds of the invention were incubated with 1.5 nM [3H]Lysergic acid diethylamide (LSD) for 120 min at 37° C. Non-specific binding was estimated in the presence of 5 μM Serotonin (5-HT). Receptor proteins were filtered and washed, the filters were then counted to determine [3H]LSD specifically bound. Compounds were screened at 1 μM or lower, using 1% DMSO as vehicle. Biochemical assay results are presented as the percent inhibition of specific binding in Table 5.

In experiment [5] the target is T4, human recombinant dopamine D2L receptor (Homo sapiens, UniProt P14416).
T4 construct: expressed in transfected cells; host or cells: CHO
The experiment in a line: Dopamine D2L radioligand binding ([3H]Spiperone). As to conditions: 1 μM compound; read-out: Percentage inhibition of ligand binding, Dopamine D2L. As to the method: To evaluate in radioligand binding assays the activity of compounds of the invention, human recombinant dopamine D2L receptor expressed in Chinese hamster ovary (CHO) cells (Grandy, D. et al, Proc. Natl. Acad. Sci. USA. 86:9762, 1989; Hayes, G. et al, Mol. Endocrinol. 6:920, 1992) in a modified Tris-HCl buffer (50 mM Tris-HCl, pH 7.4, 1.4 mM Ascorbic Acid, 0.001% BSA, 150 mM NaCl) was used. Compounds of the invention were incubated with 0.16 nM [^3H]Spiperone for 120 min at 25° C. Non-specific binding was estimated in the presence of 10 μM Haloperidol. Receptor proteins were filtered and washed, the filters were then counted to determine [^3H]Spiperone specifically bound. Compounds were screened at 1 μM or lower, using 1% DMSO as vehicle. Biochemical assay results are presented as the percent inhibition of specific binding in Table 4.

Experiment [6] has as its target T5, human recombinant serotonin (5-Hydroxytryptamine) 5-HT2A receptor (Homo sapiens, UniProt P28223).
T5 construct: expressed in transfected cells; host or cells: CHO-K1
Nature of the experiment: Serotonin 5-HT2A radioligand binding ([3H]Ketanserin). To be noted: 0.1 μM compound; read-out: Percentage inhibition of ligand binding, Serotonin 5-HT2A. The procedure:
To evaluate in radioligand binding assays the activity of compounds of the invention, human recombinant serotonin (5-Hydroxytryptamine) 5-HT2A receptor expressed in Chinese hamster ovary (CHO) K1 cells (Bonhaus, D. et al, Br. J. Pharmacol. 115:622, 1995; Saucier, C. et al, J. Neurochem. 68:1998, 1997) in a 50 mM Tris-HCl buffer, pH 7.4, was used. Compounds of the invention were incubated with 0.5 nM [^3H]Ketanserin for 60 min at 25° C. Non-specific binding was estimated in the presence of 1 μM Mianserin. Receptor proteins were filtered and washed, the filters were then counted to determine [^3H]Ketanserin specifically bound. Compounds were screened at 1 μM or lower, using 1% DMSO as vehicle. Biochemical assay results are presented as the percent inhibition of specific binding in Table 5.

Experiment [7] addresses T6, human recombinant serotonin (5-Hydroxytryptamine) 5-HT2C receptor (Homo sapiens, UniProt P28335).
T6 construct: expressed in transfected cells; host or cells: CHO-K1
T6 sequence (P28335 33-458): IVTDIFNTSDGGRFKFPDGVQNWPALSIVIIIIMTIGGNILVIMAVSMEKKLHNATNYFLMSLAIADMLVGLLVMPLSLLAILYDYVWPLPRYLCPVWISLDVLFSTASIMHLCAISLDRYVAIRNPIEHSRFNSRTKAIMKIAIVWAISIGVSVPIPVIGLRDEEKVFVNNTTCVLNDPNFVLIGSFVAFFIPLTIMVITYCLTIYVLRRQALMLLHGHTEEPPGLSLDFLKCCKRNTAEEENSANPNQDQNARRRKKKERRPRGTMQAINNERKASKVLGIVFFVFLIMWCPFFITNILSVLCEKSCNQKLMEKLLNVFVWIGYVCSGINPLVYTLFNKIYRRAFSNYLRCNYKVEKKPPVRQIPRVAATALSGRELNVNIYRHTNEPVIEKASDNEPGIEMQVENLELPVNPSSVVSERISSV
The experiment in a line: Serotonin 5-HT2C radioligand binding ([3H]Mesulergine). As to conditions: 0.1 μM compound; read-out: Percentage inhibition of ligand binding, Serotonin 5-HT2C. As to the method: To evaluate in radioligand binding assays the activity of compounds of the invention, human recombinant serotonin (5-Hydroxytryptamine) 5-HT2C receptor expressed in Chinese hamster ovary (CHO) K1 cells (Wolf, W. et al, J. Neurochem. 69:1449, 1997) in a modified Tris-HCl buffer (50 mM Tris-HCl, pH 7.4, 0.1% Ascorbic Acid, 10 μM Pargyline) was used. Compounds of the invention were incubated with 1 nM [^3H]Mesulergine for 60 min at 25° C. Non-specific binding was estimated in the presence of 1 μM Mianserin. Receptor proteins were filtered and washed, the filters were then counted to determine [^3H]Mesulergine specifically bound. Compounds were screened at 1 μM or lower, using 1% DMSO as vehicle. Biochemical assay results are presented as the percent inhibition of specific binding in Table 5.

One may read the inhibition as the change of the read-out against control, counted positive when it falls.

Structures are written as SMILES.

T5 sequence (P28223 whole entry): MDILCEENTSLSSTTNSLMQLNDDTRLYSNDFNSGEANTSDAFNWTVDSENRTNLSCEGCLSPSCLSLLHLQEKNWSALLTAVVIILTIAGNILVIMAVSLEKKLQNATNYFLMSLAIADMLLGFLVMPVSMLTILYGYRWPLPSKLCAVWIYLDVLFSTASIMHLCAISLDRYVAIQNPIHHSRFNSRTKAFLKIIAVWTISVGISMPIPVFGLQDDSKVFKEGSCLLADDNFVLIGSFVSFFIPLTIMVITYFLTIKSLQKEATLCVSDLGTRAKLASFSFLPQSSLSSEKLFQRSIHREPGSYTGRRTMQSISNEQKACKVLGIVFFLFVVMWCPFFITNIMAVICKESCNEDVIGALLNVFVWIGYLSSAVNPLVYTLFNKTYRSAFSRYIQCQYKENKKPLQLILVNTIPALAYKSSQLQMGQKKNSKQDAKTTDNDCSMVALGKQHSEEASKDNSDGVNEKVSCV
T3 sequence (P50406 whole entry): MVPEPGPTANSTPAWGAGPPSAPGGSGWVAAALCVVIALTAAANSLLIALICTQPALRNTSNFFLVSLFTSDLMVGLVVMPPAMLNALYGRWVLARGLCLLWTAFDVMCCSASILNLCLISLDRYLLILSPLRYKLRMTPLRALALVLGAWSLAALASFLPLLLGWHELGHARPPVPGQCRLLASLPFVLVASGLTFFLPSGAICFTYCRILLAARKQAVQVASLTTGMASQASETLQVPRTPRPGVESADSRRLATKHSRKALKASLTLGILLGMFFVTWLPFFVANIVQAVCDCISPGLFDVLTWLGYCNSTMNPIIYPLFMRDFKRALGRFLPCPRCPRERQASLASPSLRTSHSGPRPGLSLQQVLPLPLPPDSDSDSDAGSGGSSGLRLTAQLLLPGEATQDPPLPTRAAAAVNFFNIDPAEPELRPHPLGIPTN
T2 sequence (P35367 whole entry): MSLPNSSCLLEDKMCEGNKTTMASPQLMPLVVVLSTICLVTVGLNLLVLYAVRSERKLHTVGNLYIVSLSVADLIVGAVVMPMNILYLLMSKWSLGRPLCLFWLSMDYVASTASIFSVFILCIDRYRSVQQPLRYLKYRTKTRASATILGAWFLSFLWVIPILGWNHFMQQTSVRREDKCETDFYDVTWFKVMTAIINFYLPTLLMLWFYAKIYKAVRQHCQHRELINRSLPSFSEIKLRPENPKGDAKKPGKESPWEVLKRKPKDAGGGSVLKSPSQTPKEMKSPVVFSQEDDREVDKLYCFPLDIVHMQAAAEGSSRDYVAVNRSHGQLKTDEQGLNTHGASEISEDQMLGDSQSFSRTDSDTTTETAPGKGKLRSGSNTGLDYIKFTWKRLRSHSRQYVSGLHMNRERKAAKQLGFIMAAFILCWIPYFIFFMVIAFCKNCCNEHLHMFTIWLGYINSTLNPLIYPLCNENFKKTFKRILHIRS
T4 sequence (P14416 whole entry): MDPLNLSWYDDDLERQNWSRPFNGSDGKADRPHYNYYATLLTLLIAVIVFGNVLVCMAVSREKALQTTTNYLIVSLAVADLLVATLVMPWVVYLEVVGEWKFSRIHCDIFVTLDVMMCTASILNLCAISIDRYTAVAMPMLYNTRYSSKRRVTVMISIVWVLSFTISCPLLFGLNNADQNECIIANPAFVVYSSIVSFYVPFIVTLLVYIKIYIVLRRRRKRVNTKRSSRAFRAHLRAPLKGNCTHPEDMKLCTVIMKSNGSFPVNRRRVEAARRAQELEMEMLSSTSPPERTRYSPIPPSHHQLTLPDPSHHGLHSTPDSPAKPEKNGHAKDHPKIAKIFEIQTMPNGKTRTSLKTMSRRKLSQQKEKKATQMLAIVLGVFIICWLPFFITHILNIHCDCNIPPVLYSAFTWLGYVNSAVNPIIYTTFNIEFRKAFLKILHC
T1 sequence (P34969 whole entry): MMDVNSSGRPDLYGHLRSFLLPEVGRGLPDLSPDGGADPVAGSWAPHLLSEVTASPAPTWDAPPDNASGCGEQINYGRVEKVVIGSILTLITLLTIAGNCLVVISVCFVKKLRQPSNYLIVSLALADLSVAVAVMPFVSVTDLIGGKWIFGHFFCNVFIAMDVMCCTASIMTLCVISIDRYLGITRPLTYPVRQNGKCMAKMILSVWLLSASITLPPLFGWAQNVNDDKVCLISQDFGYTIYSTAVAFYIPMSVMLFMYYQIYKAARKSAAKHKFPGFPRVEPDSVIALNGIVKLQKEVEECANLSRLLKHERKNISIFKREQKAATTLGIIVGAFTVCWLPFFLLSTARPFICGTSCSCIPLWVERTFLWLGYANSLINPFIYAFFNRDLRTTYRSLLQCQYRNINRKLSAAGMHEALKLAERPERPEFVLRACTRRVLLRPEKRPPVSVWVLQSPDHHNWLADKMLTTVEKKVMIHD

For the compound `Clc1cccc(Cl)c1N=C1NCCN1` [Clonidine], in experiment [1], the “maximum drop of arterial blood pressure” value is −6 mmHg.
For `CN1CCc2c(c3cc(Cl)ccc3n2C=C2CCCCC2)C1` [i-1], the inhibition at 0.1 µM was 81% in experiment [2], 91% in experiment [4], 94% in experiment [6] and 98% in experiment [7]. For the same compound, the inhibition at 1 µM was determined as 100% in experiment [3] and 93% in experiment [5].

For the origin of these results see US9035056B2, “Pyrido[4,3-b]indole and pyrido[3,4-b]indole derivatives and methods of use” (Medivation Technologies, Inc., priority 2011, dated 2015).
